{"source": "patent US9149038B2", "about": "“4-amino-6-(heterocyclic)picolinates and 6-amino-2-(heterocyclic)pyrimidine-4-carboxylates and their use as herbicides” (Dow AgroSciences LLC, priority 2013, dated 2015)", "key": {"[1]": {"tested_on": "Key Broadleaf Weed and Crop Species", "assay": "Post-Emergent Test II: postemergent herbicidal activity, visual rating after 14 d (Table 7)", "assay_type": "in vivo", "conditions": "post-emergence, 336 h; for pest or weed control at 35 g/ha: 35 g ai/ha; for pest or weed control at 70 g/ha: 70 g ai/ha; for pest or weed control at 140 g/ha: 140 g ai/ha", "excerpt": "(§1) Herbicidal evaluations were made visually on a scale of 0 to 100 where 0 represents no activity and 100 represents complete plant death.\n(§2) Seeds or nutlets of the desired test plant species were planted in Sun Gro Metro-Mix® 360 planting mixture, which typically has a pH of 6.0 to 6.8 and an organic matter content of about 30 percent, in plastic pots with a surface area of 64 square centimeters (cm^2). When required to ensure good germination and healthy plants, a fungicide treatment and/or other chemical or physical treatment was applied. The plants were grown for 7-21 d in a greenhouse with an approximate 15 h photoperiod which was maintained at about 23-29° C. during the day and 22-28° C. during the night. Nutrients and water were added on a regular basis and supplemental lighting was provided with overhead metal halide 1000-Watt lamps as necessary. The plants were employed for testing when they reached the first or second true leaf stage.\n(§3) A weighed amount, determined by the highest rate to be tested, of each test compound was placed in a 25 mL glass vial and was dissolved in 4 mL of a 97:3 v/v mixture of acetone and DMSO to obtain concentrated stock solutions. […] The concentrated stock solutions obtained were diluted with 20 mL of an aqueous mixture containing acetone, water, isopropyl alcohol, DMSO, Atplus 411F crop oil concentrate, and Triton® X-155 surfactant in a 48.5:39:10:1.5:1.0:0.02 v/v ratio to obtain spray solutions containing the highest application rates. Additional application rates were obtained by serial dilution of 12 mL of the high rate solution into a solution containing 2 mL of a 97:3 v/v mixture of acetone and DMSO and 10 mL of an aqueous mixture containing acetone, water, isopropyl alcohol, DMSO, Atplus 411F crop oil concentrate, and Triton X-155 surfactant in a 48.5:39:10:1.5:1.0:0.02 v/v ratio to obtain ½×, ¼×, ⅛× and 1/16× rates of the high rate. Compound requirements are based upon a 12 mL application volume at a rate of 187 liters per hectare (L/ha). Formulated compounds were applied to the plant material with an overhead Mandel track sprayer equipped with 8002E nozzles calibrated to deliver 187 L/ha over an application area of 0.503 square meters at a spray height of 18 inches (43 cm) above the average plant canopy height. Control plants were sprayed in the same manner with the solvent blank.\n(§4) The treated plants and control plants were placed in a greenhouse as described above and watered by subirrigation to prevent wash-off of the test compounds. After 14 d, the condition of the test plants as compared with that of the untreated plants was determined visually and scored on a scale of 0 to 100 percent where 0 corresponds to no injury and 100 corresponds to complete kill and are presented as indicated in Table 4."}, "[2]": {"tested_on": "Key Grass and Sedge Weeds as well as Grass Crops", "assay": "Post-Emergent Test II: postemergent herbicidal activity, visual rating after 14 d (Table 8)", "assay_type": "in vivo", "conditions": "post-emergence, 336 h; for pest or weed control at 35 g/ha: 35 g ai/ha; for pest or weed control at 70 g/ha: 70 g ai/ha; for pest or weed control at 140 g/ha: 140 g ai/ha", "excerpt": "as §1, §2, §3, §4"}, "[3]": {"conditions": "lambsquarters (Chenopodium album), read-out: Visual Growth Reduction (%) 14 Days After Application CHEAL"}, "[4]": {"conditions": "oilseed rape, canola (Brassica napus), read-out: Visual Growth Reduction (%) 14 Days After Application BRSNN"}, "[5]": {"conditions": "redroot pigweed (Amaranthus retroflexus), read-out: Visual Growth Reduction (%) 14 Days After Application AMARE"}, "[6]": {"conditions": "sunflower (Helianthus annuus), read-out: Visual Growth Reduction (%) 14 Days After Application HELAN"}, "[7]": {"conditions": "velvetleaf (Abutilon theophrasti), read-out: Visual Growth Reduction (%) 14 Days After Application ABUTH"}, "[8]": {"conditions": "wild poinsettia (Euphorbia heterophylla), read-out: Visual Growth Reduction (%) 14 Days After Application EPHHL"}, "[9]": {"conditions": "barnyardgrass (Echinochloa crus-galli), read-out: Visual Growth Reduction (%) 14 Days After Application ECHCG"}, "[10]": {"conditions": "giant foxtail (Setaria faberi), read-out: Visual Growth Reduction (%) 14 Days After Application SETFA"}, "[11]": {"conditions": "rice (Oryza sativa), read-out: Visual Growth Reduction (%) 14 Days After Application ORYSA"}, "[12]": {"conditions": "wheat, spring (Triticum aestivum), read-out: Visual Growth Reduction (%) 14 Days After Application TRZAS"}, "[13]": {"conditions": "yellow nutsedge (Cyperus esculentus), read-out: Visual Growth Reduction (%) 14 Days After Application CYPES"}, "[14]": {"conditions": "maize, corn (Zea mays), read-out: Visual Growth Reduction (%) 14 Days After Application ZEAMX"}}, "note": "Read-outs that look alike come from different tables or passages of the source."}
{"smiles": "Nc1nc(-c2ccc3c(c2)OC(F)(F)O3)nc(C(=O)O)c1Cl", "note": "[Compound 61]", "values": [{"measurement": "pest or weed control at 35 g/ha", "setting": "[1]; [3]", "value": "60 to 74", "unit": "%"}, {"measurement": "pest or weed control at 70 g/ha", "setting": "[1]; [3]", "value": "60 to 74", "unit": "%"}, {"measurement": "pest or weed control at 140 g/ha", "setting": "[1]; [3]", "value": "75 to 84", "unit": "%"}, {"measurement": "pest or weed control at 35 g/ha", "setting": "[1]; [4]", "value": "60 to 74", "unit": "%"}, {"measurement": "pest or weed control at 70 g/ha", "setting": "[1]; [4]", "value": "85 to 94", "unit": "%"}, {"measurement": "pest or weed control at 140 g/ha", "setting": "[1]; [4]", "value": "75 to 84", "unit": "%"}, {"measurement": "pest or weed control at 35 g/ha", "setting": "[1]; [5]", "value": "0 to 29", "unit": "%"}, {"measurement": "pest or weed control at 70 g/ha", "setting": "[1]; [5]", "value": "30 to 44", "unit": "%"}, {"measurement": "pest or weed control at 140 g/ha", "setting": "[1]; [5]", "value": "30 to 44", "unit": "%"}, {"measurement": "pest or weed control at 35 g/ha", "setting": "[1]; [6]", "value": "60 to 74", "unit": "%"}, {"measurement": "pest or weed control at 70 g/ha", "setting": "[1]; [6]", "value": "60 to 74", "unit": "%"}, {"measurement": "pest or weed control at 140 g/ha", "setting": "[1]; [6]", "value": "75 to 84", "unit": "%"}, {"measurement": "pest or weed control at 35 g/ha", "setting": "[1]; [7]", "value": "45 to 59", "unit": "%"}, {"measurement": "pest or weed control at 70 g/ha", "setting": "[1]; [7]", "value": "60 to 74", "unit": "%"}, {"measurement": "pest or weed control at 140 g/ha", "setting": "[1]; [7]", "value": "60 to 74", "unit": "%"}, {"measurement": "pest or weed control at 35 g/ha", "setting": "[1]; [8]", "value": "85 to 94", "unit": "%"}, {"measurement": "pest or weed control at 70 g/ha", "setting": "[1]; [8]", "value": "95 to 100", "unit": "%"}, {"measurement": "pest or weed control at 140 g/ha", "setting": "[1]; [8]", "value": "95 to 100", "unit": "%"}, {"measurement": "pest or weed control at 35 g/ha", "setting": "[2]; [9]", "value": "85 to 94", "unit": "%"}, {"measurement": "pest or weed control at 70 g/ha", "setting": "[2]; [9]", "value": "85 to 94", "unit": "%"}, {"measurement": "pest or weed control at 140 g/ha", "setting": "[2]; [9]", "value": "85 to 94", "unit": "%"}, {"measurement": "pest or weed control at 35 g/ha", "setting": "[2]; [10]", "value": "60 to 74", "unit": "%"}, {"measurement": "pest or weed control at 70 g/ha", "setting": "[2]; [10]", "value": "75 to 84", "unit": "%"}, {"measurement": "pest or weed control at 140 g/ha", "setting": "[2]; [10]", "value": "85 to 94", "unit": "%"}, {"measurement": "pest or weed control at 35 g/ha", "setting": "[2]; [11]", "value": "0 to 29", "unit": "%"}, {"measurement": "pest or weed control at 70 g/ha", "setting": "[2]; [11]", "value": "45 to 59", "unit": "%"}, {"measurement": "pest or weed control at 140 g/ha", "setting": "[2]; [11]", "value": "60 to 74", "unit": "%"}, {"measurement": "pest or weed control at 35 g/ha", "setting": "[2]; [12]", "value": "60 to 74", "unit": "%"}, {"measurement": "pest or weed control at 70 g/ha", "setting": "[2]; [12]", "value": "75 to 84", "unit": "%"}, {"measurement": "pest or weed control at 140 g/ha", "setting": "[2]; [12]", "value": "75 to 84", "unit": "%"}, {"measurement": "pest or weed control at 35 g/ha", "setting": "[2]; [13]", "value": "0 to 29", "unit": "%"}, {"measurement": "pest or weed control at 70 g/ha", "setting": "[2]; [13]", "value": "0 to 29", "unit": "%"}, {"measurement": "pest or weed control at 140 g/ha", "setting": "[2]; [13]", "value": "45 to 59", "unit": "%"}]}
{"smiles": "COC(=O)c1nc(-c2cc(F)c3c(c2)OC(F)(F)O3)c(F)c(N)c1Cl", "note": "[Compound 17]", "values": [{"measurement": "pest or weed control at 35 g/ha", "setting": "[1]; [3]", "value": "0 to 29", "unit": "%"}, {"measurement": "pest or weed control at 70 g/ha", "setting": "[1]; [3]", "value": "0 to 29", "unit": "%"}, {"measurement": "pest or weed control at 140 g/ha", "setting": "[1]; [3]", "value": "0 to 29", "unit": "%"}, {"measurement": "pest or weed control at 35 g/ha", "setting": "[1]; [4]", "value": "0 to 29", "unit": "%"}, {"measurement": "pest or weed control at 70 g/ha", "setting": "[1]; [4]", "value": "0 to 29", "unit": "%"}, {"measurement": "pest or weed control at 140 g/ha", "setting": "[1]; [4]", "value": "0 to 29", "unit": "%"}, {"measurement": "pest or weed control at 35 g/ha", "setting": "[1]; [5]", "value": "0 to 29", "unit": "%"}, {"measurement": "pest or weed control at 70 g/ha", "setting": "[1]; [5]", "value": "0 to 29", "unit": "%"}, {"measurement": "pest or weed control at 140 g/ha", "setting": "[1]; [5]", "value": "0 to 29", "unit": "%"}, {"measurement": "pest or weed control at 35 g/ha", "setting": "[1]; [6]", "value": "0 to 29", "unit": "%"}, {"measurement": "pest or weed control at 70 g/ha", "setting": "[1]; [6]", "value": "0 to 29", "unit": "%"}, {"measurement": "pest or weed control at 140 g/ha", "setting": "[1]; [6]", "value": "0 to 29", "unit": "%"}, {"measurement": "pest or weed control at 35 g/ha", "setting": "[1]; [7]", "value": "0 to 29", "unit": "%"}, {"measurement": "pest or weed control at 70 g/ha", "setting": "[1]; [7]", "value": "0 to 29", "unit": "%"}, {"measurement": "pest or weed control at 140 g/ha", "setting": "[1]; [7]", "value": "0 to 29", "unit": "%"}, {"measurement": "pest or weed control at 35 g/ha", "setting": "[1]; [8]", "value": "0 to 29", "unit": "%"}, {"measurement": "pest or weed control at 70 g/ha", "setting": "[1]; [8]", "value": "0 to 29", "unit": "%"}, {"measurement": "pest or weed control at 140 g/ha", "setting": "[1]; [8]", "value": "0 to 29", "unit": "%"}, {"measurement": "pest or weed control at 35 g/ha", "setting": "[2]; [14]", "value": "0 to 29", "unit": "%"}, {"measurement": "pest or weed control at 70 g/ha", "setting": "[2]; [14]", "value": "0 to 29", "unit": "%"}, {"measurement": "pest or weed control at 140 g/ha", "setting": "[2]; [14]", "value": "60 to 74", "unit": "%"}, {"measurement": "pest or weed control at 35 g/ha", "setting": "[2]; [11]", "value": "0 to 29", "unit": "%"}, {"measurement": "pest or weed control at 70 g/ha", "setting": "[2]; [11]", "value": "0 to 29", "unit": "%"}, {"measurement": "pest or weed control at 140 g/ha", "setting": "[2]; [11]", "value": "0 to 29", "unit": "%"}, {"measurement": "pest or weed control at 35 g/ha", "setting": "[2]; [12]", "value": "0 to 29", "unit": "%"}, {"measurement": "pest or weed control at 70 g/ha", "setting": "[2]; [12]", "value": "0 to 29", "unit": "%"}, {"measurement": "pest or weed control at 140 g/ha", "setting": "[2]; [12]", "value": "0 to 29", "unit": "%"}, {"measurement": "pest or weed control at 35 g/ha", "setting": "[2]; [13]", "value": "0 to 29", "unit": "%"}, {"measurement": "pest or weed control at 70 g/ha", "setting": "[2]; [13]", "value": "0 to 29", "unit": "%"}, {"measurement": "pest or weed control at 140 g/ha", "setting": "[2]; [13]", "value": "0 to 29", "unit": "%"}]}
